Some test systems named below: SF-268; SNB-19; SK-MEL-5; K562; SK-MEL-2; MDA-MB-435; A549; A498; MDA-MB-231; SF-539; KM12; U-251; TK-10; HL-60; OVCAR-3; OVCAR-5; HOP-62; T47D; UO-31.
Test in all cases: NCI-60 cell line screen, 48 h

Each structure is given as a SMILES string.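 Where inhibition never reached the appropriate level, the endpoint shown equals the highest concentration tested. Otherwise, values were interpolated linearly from a five-concentration, 48-hour dose response in 96-well plates. At the GI50, growth is halved.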 Activity calls are given as the source filed them. Rule as the data show it: active = GI50 up to about 1.1 µM and inactive = higher.

Results on ten compounds are retold here after ChEMBL document CHEMBL1201862, “PubChem BioAssay data set” (2004).

For the compound `COc1ccccc1C1ON=C(c2ccc([N+](=O)[O-])cc2)N1C12CC3CC(CC(C3)C1)C2` (stereo not given), the GI50 with SF-268 was > 100 µM (inactive); in the assay on SNB-19 it was > 100 µM (inactive); in the assay with SK-MEL-5, 59.6 µM (inactive); in the assay on K562 it was 36.7 µM (inactive); in the assay on SK-MEL-2 it was > 100 µM (inactive); with MDA-MB-435, 96.4 µM (inactive). Also, the GI50 with A549 was 94 µM (inactive); in the assay with A498 it was > 100 µM (inactive); in the assay on MDA-MB-231, > 100 µM (inactive); in the assay with SF-539, > 100 µM (inactive); with KM12, > 100 µM (inactive); in the assay with U-251, > 100 µM (inactive). Moreover, the GI50 in the assay on TK-10 is > 100 µM (inactive); with HL-60, 4.35 µM (inactive); in the assay with OVCAR-3 it was > 100 µM (inactive); in the assay with OVCAR-5, 44.7 µM (inactive); in the assay with HOP-62, 20.4 µM (inactive); in the assay with T47D, 14 µM (inactive). In addition, the GI50 with UO-31 was > 100 µM (inactive).
With `CC1(C)OCC(C2OC(N3O[C@H](CI)C[C@@H]3c3ccccc3)C3OC(C)(C)OC23)O1` (stereo not given in full), the GI50 is > 100 µM (inactive) in the assay with SF-268; > 100 µM (inactive) in the assay with SNB-19; 48.8 µM (inactive) in the assay on SK-MEL-5; > 100 µM (inactive) in the assay with K562; > 100 µM (inactive) in the assay on SK-MEL-2; > 100 µM (inactive) in the assay with MDA-MB-435. Further, the GI50 in the assay with A549, in the assay on A498, in the assay with MDA-MB-231, with SF-539, with KM12 and in the assay on U-251 was > 100 µM (inactive) each time. Further, the GI50 in the assay on TK-10 was > 100 µM (inactive); in the assay on HL-60, 66.5 µM (inactive); in the assay with OVCAR-3, > 100 µM (inactive); in the assay on OVCAR-5 it was > 100 µM (inactive); in the assay with HOP-62 it was > 100 µM (inactive); in the assay on T47D it was > 100 µM (inactive). In addition, the GI50 in the assay with UO-31 is > 100 µM (inactive).
As to `Cc1cc(=O)c2ccccc2n1CCCCCCCCCCn1c(C)cc(=O)c2ccccc21`, the GI50 in the assay on SF-268 was 30.2 µM (inactive); in the assay on SNB-19, 18.1 µM (inactive); with SK-MEL-5, 0.64 µM (active); in the assay on K562, 4.68 µM (inactive); in the assay with SK-MEL-2, > 10 µM (inactive); with MDA-MB-435, 14.8 µM (inactive). The GI50 in the assay with A549 was 20 µM (inactive); with A498 it was 15.1 µM (inactive); in the assay on MDA-MB-231, 29.5 µM (inactive); in the assay with SF-539, 25.8 µM (inactive); in the assay on KM12, 15.9 µM (inactive); with U-251, 15.6 µM (inactive). Besides, the GI50 with TK-10 was 14.1 µM (inactive); in the assay with HL-60, 4.38 µM (inactive); with OVCAR-3 it was 37.3 µM (inactive); in the assay with OVCAR-5 it was > 100 µM (inactive); with HOP-62 it was > 100 µM (inactive); with T47D, 16.3 µM (inactive). The GI50 in the assay on UO-31 is 12 µM (inactive).
For the compound `Cc1ncn(-c2ccccc2O)c1C`, the GI50 in the assay on SF-268 is > 100 µM (inactive); with SNB-19, > 100 µM (inactive); in the assay with SK-MEL-5, 74.8 µM (inactive); in the assay on K562 it was > 100 µM (inactive); in the assay on SK-MEL-2 it was > 100 µM (inactive); with MDA-MB-435 it was > 100 µM (inactive). Besides, the GI50 in the assay on A549, in the assay with A498, in the assay with MDA-MB-231, in the assay on SF-539, in the assay on KM12 and in the assay on U-251 was > 100 µM (inactive) throughout. The GI50 with TK-10, with HL-60, with OVCAR-3, in the assay with OVCAR-5, in the assay with HOP-62 and in the assay with T47D was > 100 µM (inactive) throughout. In addition, the GI50 in the assay with UO-31 was > 100 µM (inactive).
Regarding `Cn1c(=O)c2c(O)cc(N)nc2n(C)c1=O`, the GI50 in the assay with SF-268, with SNB-19, with SK-MEL-5, in the assay with K562, in the assay with SK-MEL-2 and with MDA-MB-435 was > 100 µM (inactive) in each case. In addition, the GI50 in the assay with A549, with A498, with MDA-MB-231, with SF-539, with KM12 and in the assay on U-251 was > 100 µM (inactive) throughout. Moreover, the GI50 in the assay with TK-10, in the assay with HL-60, in the assay with OVCAR-3, in the assay on OVCAR-5, in the assay on HOP-62 and in the assay on T47D was > 100 µM (inactive) each time. The GI50 in the assay with UO-31 is > 100 µM (inactive).
Consider `CCOC(=O)c1c(NS(=O)(=O)c2ccc(Br)cc2)sc2c1CCCC2`, for which the GI50 in the assay with SF-268 was 3.72 µM (inactive); with SNB-19, 7.46 µM (inactive); in the assay on SK-MEL-5 it was 7.29 µM (inactive); in the assay with K562 it was 5.79 µM (inactive); in the assay on SK-MEL-2, 5.85 µM (inactive); in the assay on MDA-MB-435, 19.4 µM (inactive). The GI50 in the assay on A549 is 7.78 µM (inactive); in the assay with A498, 9.4 µM (inactive); in the assay on MDA-MB-231, 7.29 µM (inactive); in the assay on SF-539 it was 7.91 µM (inactive); with KM12, 6.65 µM (inactive); in the assay with U-251, 12.4 µM (inactive). The GI50 in the assay on TK-10 was 10.8 µM (inactive); in the assay with HL-60, 6.18 µM (inactive); with OVCAR-3, 3.93 µM (inactive); in the assay with OVCAR-5, 6.71 µM (inactive); in the assay on HOP-62, 5.9 µM (inactive); in the assay on T47D it was 6.61 µM (inactive). Besides, the GI50 with UO-31 is 3.51 µM (inactive).
Consider `Clc1ccc2c(NC3CCC(N4CCCCC4)CC3)ccnc2c1` (stereo not given), for which the GI50 is 35.8 µM (inactive) in the assay on SF-268; 32.7 µM (inactive) in the assay on SNB-19; 15.2 µM (inactive) with SK-MEL-5; 3.3 µM (inactive) in the assay on K562; 18.2 µM (inactive) in the assay on SK-MEL-2; 14.1 µM (inactive) in the assay with MDA-MB-435. Moreover, the GI50 is 31.8 µM (inactive) in the assay with A549; 18.3 µM (inactive) in the assay on A498; 16.9 µM (inactive) in the assay with MDA-MB-231; 15.4 µM (inactive) in the assay with SF-539; 20.1 µM (inactive) with KM12; 21 µM (inactive) in the assay with U-251. Also, the GI50 in the assay with TK-10 is 18.4 µM (inactive); with HL-60, 14.5 µM (inactive); in the assay with OVCAR-3, 20.8 µM (inactive); in the assay with OVCAR-5, 30.7 µM (inactive); in the assay on HOP-62, 29.9 µM (inactive); with T47D, 29.4 µM (inactive). Further, the GI50 in the assay with UO-31 was 13.9 µM (inactive).
Regarding `C=C1C(=O)O[C@H]2[C@H]3O[C@@H](C[C@@H]12)[C@@]1(C)CC[C@H](O1)C(C)=CCC[C@H]3C`, the GI50 with SF-268 was 1.45 µM (inactive); with SNB-19, 6.35 µM (inactive); in the assay on SK-MEL-5, 1.49 µM (inactive); in the assay on K562, 1.08 µM (active); in the assay with SK-MEL-2, 1.93 µM (inactive); in the assay with MDA-MB-435 it was 1.46 µM (inactive). Besides, the GI50 in the assay on A549 is 2.25 µM (inactive); in the assay on A498, 1.63 µM (inactive); in the assay with MDA-MB-231 it was 1.62 µM (inactive); with SF-539 it was 1.55 µM (inactive); in the assay on KM12, 1.8 µM (inactive); in the assay with U-251, 1.61 µM (inactive). Also, the GI50 in the assay on TK-10 is 1.58 µM (inactive); with HL-60 it was 0.278 µM (active); with OVCAR-3, 1.37 µM (inactive); with OVCAR-5, 3.09 µM (inactive); in the assay with HOP-62, 6.27 µM (inactive); with T47D it was 2.11 µM (inactive). Moreover, the GI50 in the assay on UO-31 is 1.46 µM (inactive).
With `Nc1ccc(Oc2ccc(C34CC5CC(C3)CC(c3ccc(Oc6ccc(N)c(O)c6)cc3)(C5)C4)cc2)cc1O`, the GI50 in the assay on SF-268 was 1.35 µM (inactive); in the assay with SNB-19 it was 1.52 µM (inactive); with SK-MEL-5, 1.61 µM (inactive); in the assay on K562 it was 3.3 µM (inactive); with SK-MEL-2, 2.07 µM (inactive); with MDA-MB-435, 1.89 µM (inactive). In addition, the GI50 in the assay with A549 was 1.64 µM (inactive); in the assay with A498, 7.66 µM (inactive); with MDA-MB-231, 1.57 µM (inactive); in the assay on SF-539 it was 2.13 µM (inactive); in the assay on KM12 it was 1.93 µM (inactive); with U-251, 1.36 µM (inactive). Moreover, the GI50 was 3.3 µM (inactive) in the assay with TK-10; 2.12 µM (inactive) with HL-60; 2.03 µM (inactive) in the assay with OVCAR-3; 2.05 µM (inactive) in the assay on OVCAR-5; 3.47 µM (inactive) in the assay with HOP-62; 1.76 µM (inactive) in the assay with T47D. Also, the GI50 in the assay on UO-31 is 1.77 µM (inactive).
As for `CC(=O)Oc1c(C)c2c(c3ncccc13)OC(C)C2` (stereo not given), the GI50 is 14.4 µM (inactive) in the assay with SF-268; 34 µM (inactive) with SNB-19; 14.5 µM (inactive) in the assay with SK-MEL-5; 10.2 µM (inactive) in the assay on K562; 18.1 µM (inactive) in the assay on SK-MEL-2; 6.14 µM (inactive) with MDA-MB-435. Further, the GI50 with A549 was 13.4 µM (inactive); in the assay with A498 it was 20 µM (inactive); in the assay with MDA-MB-231, 11.5 µM (inactive); in the assay with SF-539 it was 15 µM (inactive); in the assay with KM12 it was 15.1 µM (inactive); in the assay on U-251 it was 15.5 µM (inactive). The GI50 was 22 µM (inactive) in the assay on TK-10; 7.4 µM (inactive) in the assay with HL-60; 32.4 µM (inactive) with OVCAR-3; 17.2 µM (inactive) in the assay on OVCAR-5; 17.1 µM (inactive) with HOP-62; 9.14 µM (inactive) in the assay with T47D. Further, the GI50 with UO-31 was 14.8 µM (inactive).
